Key:
Type in all cases: cell-based
MCP-1 = MCP-1 chemokine secretion by TNFα-stimulated primary human hepatic stellate cells (ELISA); conditions: for MCP-1 chemokine secretion, per-cell normalized, fold change from plasma amino acid background: primary human hepatic stellate cells, two donors, TNFα 3 ng/mL, 12 hours; for Fold Change MCP1 Secretion Normalized Per Cell, Mean: donor 3 hepatic stellate cells, TNFα, fold change from plasma amino acid background
Description: Primary human hepatic stellate cells were obtained from Samsara Sciences and grown in Complete HSC Medium to […] confluence in T75 or T150 flasks below passage 10 were seeded into 96-well plates and incubated for 6 hours at 37° C., 5% CO2 in a humidified incubator. After 6 hours, plates were removed from the incubator washed with DPBS and pretreated (±single amino acid dropout, ±supplemental amino acid dose; see experiment for medium composition) overnight, ˜14-15 hours. After overnight pretreatment, the medium was removed from the cells, and the same pretreatment medium, now supplemented with 3 ng/mL TNFα was applied. Plates were incubated for 12 hours at 37° C., 5% CO2. After 12 hour stimulus with TNFα, supernatant was removed and frozen at −80° C. in two separate aliquots. Plates were washed and incubated with CCK-8 viability reagent (Dojindo) for 1 hour. Viability was measured on the Synergy plate reader. Immediately, the medium was removed and the plates were fixed for immunofluorescence staining.
Human CCL2/MCP1 and Human IL-6 were measured by ELISA (Human […] DuoSet ELISA, R&D Systems; Human IL-6 DuoSet ELISA, R&D Systems) at ⅕ and 1/20 dilution in 1× Reagent Diluent (Reagent Ancillary Kit 2, R&D Systems). Data were normalized to the specific per well cell density determined by Hoechst stained nuclei count.
Tables 35-38 show per-cell normalized MCP-1 chemokine secretion in primary human hepatic stellate cells from two donors as a fold change from the plasma amino acid background. Statistical significance calculated by one-way ANOVA with Dunnett's multiple comparison test within each treatment group.

IL-6 = test: LPS-induced IL-6 secretion in primary human monocyte-derived macrophages (ELISA); conditions: for IL-6 Measurements Mean: LPS 0.15 ng/mL, baseline subtracted; for LPS-induced IL-6 secretion: macrophages, 0.15 ng/mL LPS
Description: (§1) Unpurified buffy coats (Research Blood Components) were carefully poured into 50 mL centrifuge tubes and diluted with room temperature Dulbecco's Phosphate Buffered Saline (dPBS) with Calcium and Magnesium (Gibco). Diluted buffy coats were further divided into four total 50 mL centrifuge tubes at 20 mL per tube. Lymphocyte Separation Medium (Corning) was carefully pipetted to the bottom of each centrifuge tube. Mixtures were centrifuged at 850× g for 32 minutes at 20° C. with 0 deceleration and acceleration.
(§2) The PBMC layer was separated from other components after centrifugation and added to new 50 mL centrifuge tube containing 25 mL dPBS. Total volume was brought up to 50 mL with dPBS and centrifuged at 600×g for 10 minutes at 20° C. with acceleration of 9, deceleration of 5. Supernatant was carefully removed from cell pellets. The cell pellets were resuspended using 10 mL dPBS. Total volume was then brought up to 50 mL using dPBS and centrifuged at 450×g for 5 min at 20° C. with acceleration of 9, deceleration of 9. The supernatant removal and cell pellet resuspension was repeated again.
(§3) The supernatant was then carefully removed from cell pellets. Cell pellets were resuspended in 10 mL dPBS without calcium or magnesium and filtered through a 70 uM cell strainer. The total PBMC number was determined using a Cellometer K2 automated cell counter. A total of 5E6 cells were saved for flow cytometric analysis. Remaining cells were centrifuged at 490×g for 5 minutes at 20° C. with acceleration of 9, deceleration of 9.
(§4) CD14+ cells were selected using EasySep™ Human CD14 Positive Selection Kit II ([…] Technologies). Cells were resuspended in cold EasySep™ Buffer ([…] Technologies) at 1×10^8 cells/mL. A total of 100 uL/mL EasySep™ Human CD14 Positive Selection Cocktail II was added to the cell suspension, mixed, and incubated at room temperature for 10 minutes. A total of 100 uL/mL RapidSpheres were added to the mixture and incubated at room temperature for 3 minutes after mixing, then RoboSep buffer was added to bring up the total volume to 10 mL. The mixture in a 15 mL tube was placed in magnet and incubated at room temperature for 3 minutes. Supernatant was discarded and 10 mL fresh EasySep™ buffer was added to 15 mL tube. The addition of RoboSep buffer, mixing, and discarding of supernatant was repeated two more times.
(§5) Negative and positive fractions were centrifuged at 490×g for 5 minutes at 20° C. with acceleration of 9, deceleration of 9, and resuspended in DMEM (Gibco) and 10% Heat Inactivated Fetal Bovine Serum (Atlanta Bio) and Penicillin/Streptomycin. Cells were counted and centrifuged again at 490× g for 5 minutes at 20° C. with acceleration of 9, deceleration of 9. After centrifugation, cell were resuspended in DMEM (Gibco) and 10% Heat Inactivated Fetal Bovine Serum (Atlanta Bio) and Penicillin/Streptomycin containing 500 U/mL […] and plated at 1-2×10^6 cells/mL on 10 cm tissue culture plates. Cells were kept in 37° C., 5% CO2 in between feedings/harvest.
(§6) Cells were fed every 3-4 days by removing media and unattached cells, centrifuging at 490× g for 5 minutes at 20° C. with acceleration of 9, deceleration of 9, and resuspending in fresh DMEM (Gibco) and 10% Heat Inactivated Fetal Bovine Serum (Atlanta Bio) and Penicillin/Streptomycin containing GM-CSF. Resuspended cells were seeded back onto 10 cm tissue culture plates and incubated at 37° C., 5% CO2. Differentiated macrophages were used for subsequent experiments.
(§7) Primary human PMBC derived macrophages were seeded on day 0 at 3.0E4 cells per well in 96-well microplates (ThermoFisher) in Dulbecco's Modified Eagle Medium (DMEM) (Gibco) supplemented with penicillin-streptomycin (Hyclone) and 10% heat inactivated fetal bovine serum (HI-FBS) (Atlanta Bio) and incubated overnight at 37° C., 5% CO2. On day 1, cells were washed once with 150 uL per well DPBS (Gibco) and treated with 75 uL of: • a. […]

TNFα = test: LPS-induced TNFα secretion in primary human monocyte-derived macrophages (ELISA); parameters: TNFa Measurements Mean: unit not given here; conditions: for TNFa Measurements Mean: LPS 0.15 ng/mL; for TNFa Measurements Mean / Donor 2 TNFa Measurements Mean / Donor 3 TNFa Measurements Mean: baseline subtracted; for LPS-induced TNFα secretion: macrophages, 0.15 ng/mL LPS
Description: as §1, §2, §3, §4, §5, §6, §7

[1] = Donor 1, Conc. 234 μM (baseline)
[2] = Donor 2, Conc. 234 μM (baseline)
[3] = Donor 3, Conc. 234 μM (baseline)

CC(C)[C@H](N)C(=O)O [Valine, L-Valine]
Fold Change MCP1 Secretion Normalized Per Cell (MCP-1; donor 3, Conc. 234 μM (plasma background, reference)): 1.0000
Fold Change MCP1 Secretion Normalized Per Cell (MCP-1; donor 3, Conc. 4684 μM): 1.0630
Fold Change MCP1 Secretion Normalized Per Cell (MCP-1; donor 3, Conc. 11710 μM): 1.0204
Fold Change MCP1 Secretion Normalized Per Cell (MCP-1; donor 3, Conc. 23420 μM): 1.2651
Fold Change MCP1 Secretion Normalized Per Cell (MCP-1; donor 4, Conc. 234 μM (plasma background, reference)): 1.0000
MCP-1 chemokine secretion, per-cell normalized, fold change from plasma amino acid background (MCP-1): no significant impact
IL-6 Measurements Mean (IL-6; [1]): 0
IL-6 Measurements Mean (IL-6; Donor 1, Conc. 4684 μM): −85.9843
IL-6 Measurements Mean (IL-6; Donor 1, Conc. 11710 μM): −97.25
IL-6 Measurements Mean (IL-6; Donor 1, Conc. 23420 μM): −106.268
IL-6 Measurements Mean (IL-6; [2]): −4.7E−15
IL-6 Measurements Mean (IL-6; Donor 2, Conc. 4684 μM): −4.528
IL-6 Measurements Mean (IL-6; Donor 2, Conc. 11710 μM): −1.196
IL-6 Measurements Mean (IL-6; Donor 2, Conc. 23420 μM): 4.396
IL-6 Measurements Mean (IL-6; [3]): 4.26E−14
IL-6 Measurements Mean (IL-6; Donor 3, Conc. 4684 μM): −30.0609
IL-6 Measurements Mean (IL-6; Donor 3, Conc. 11710 μM): −43.8022
IL-6 Measurements Mean (IL-6; Donor 3, Conc. 23420 μM): −29.2004
TNFa Measurements Mean (TNFα; [1]): 0
TNFa Measurements Mean (TNFα; Donor 1, Conc. 4684 μM): −40.37
TNFa Measurements Mean (TNFα; Donor 1, Conc. 11710 μM): −41.77
TNFa Measurements Mean (TNFα; Donor 1, Conc. 23420 μM): −14.98
Donor 2 TNFa Measurements Mean (TNFα; [2]): −4.7E−15
Donor 2 TNFa Measurements Mean (TNFα; Donor 2, Conc. 4684 μM): −0.00221
Donor 2 TNFa Measurements Mean (TNFα; Donor 2, Conc. 11710 μM): −0.835
Donor 2 TNFa Measurements Mean (TNFα; Donor 2, Conc. 23420 μM): −1.251
Donor 3 TNFa Measurements Mean (TNFα; [3]): −2.4E−15
Donor 3 TNFa Measurements Mean (TNFα; Donor 3, Conc. 4684 μM): 0.126
Donor 3 TNFa Measurements Mean (TNFα; Donor 3, Conc. 11710 μM): −2.599
Donor 3 TNFa Measurements Mean (TNFα; Donor 3, Conc. 23420 μM): 3.688

CC(=O)N[C@@H](CS)C(=O)O [NAC, N-acetylcysteine]
Fold Change MCP1 Secretion Normalized Per Cell, Mean (MCP-1; Conc. 5 X): 0.8492
Fold Change MCP1 Secretion Normalized Per Cell, Mean (MCP-1; Conc. 10 X): 0.6565
Fold Change MCP1 Secretion Normalized Per Cell, Mean (MCP-1; Conc. 20 X): 0.5413
Fold Change MCP1 Secretion Normalized Per Cell, Mean (MCP-1; Conc. 40 X): 0.4485
Fold Change MCP1 Secretion Normalized Per Cell (MCP-1; donor 3, Conc. 1000 μM): 0.8492
Fold Change MCP1 Secretion Normalized Per Cell (MCP-1; donor 3, Conc. 2500 μM): 0.6565
Fold Change MCP1 Secretion Normalized Per Cell (MCP-1; donor 3, Conc. 5000 μM): 0.5413
Fold Change MCP1 Secretion Normalized Per Cell (MCP-1; donor 3, Conc. 10000 μM): 0.4485
Fold Change MCP1 Secretion Normalized Per Cell (MCP-1; donor 4, Conc. 5 X): 0.6437
Fold Change MCP1 Secretion Normalized Per Cell (MCP-1; donor 4, Conc. 10 X): 0.8033
Fold Change MCP1 Secretion Normalized Per Cell (MCP-1; donor 4, Conc. 20 X): 0.6728
Fold Change MCP1 Secretion Normalized Per Cell (MCP-1; donor 4, Conc. 40 X): 0.5011
MCP-1 chemokine secretion, per-cell normalized, fold change from plasma amino acid background (MCP-1): significantly reduced
IL-6 Measurements Mean (IL-6; Donor 1, Conc. 0 X (baseline)): 0
IL-6 Measurements Mean (IL-6; Donor 1, Conc. 5 X): 308.1772
IL-6 Measurements Mean (IL-6; Donor 1, Conc. 10 X): −121.142
IL-6 Measurements Mean (IL-6; Donor 1, Conc. 20 X): −553.802
IL-6 Measurements Mean (IL-6; Donor 1, Conc. 40 X): −914.194
IL-6 Measurements Mean (IL-6; Donor 2, Conc. 0 X (baseline)): −2.4E−15
IL-6 Measurements Mean (IL-6; Donor 2, Conc. 5 X): −0.7946
IL-6 Measurements Mean (IL-6; Donor 2, Conc. 10 X): −9.751
IL-6 Measurements Mean (IL-6; Donor 2, Conc. 20 X): −24.9999
IL-6 Measurements Mean (IL-6; Donor 2, Conc. 40 X): −33.7585
IL-6 Measurements Mean (IL-6; Donor 3, Conc. 0 X (baseline)): −9.5E−15
IL-6 Measurements Mean (IL-6; Donor 3, Conc. 5 X): −70.3269
IL-6 Measurements Mean (IL-6; Donor 3, Conc. 10 X): −103.586
IL-6 Measurements Mean (IL-6; Donor 3, Conc. 20 X): −122.656
IL-6 Measurements Mean (IL-6; Donor 3, Conc. 40 X): −140.851
LPS-induced IL-6 secretion (IL-6; Donor 1): significantly reduced
LPS-induced IL-6 secretion (IL-6; Donor 2): significantly reduced
LPS-induced IL-6 secretion (IL-6; Donor 3): significantly reduced
TNFa Measurements Mean (TNFα; Donor 1, Conc. 0 X (baseline)): 0
TNFa Measurements Mean (TNFα; Donor 1, Conc. 5 X): −326.24
TNFa Measurements Mean (TNFα; Donor 1, Conc. 10 X): −446.88
TNFa Measurements Mean (TNFα; Donor 1, Conc. 20 X): −561.33
TNFa Measurements Mean (TNFα; Donor 1, Conc. 40 X): −644.49
Donor 2 TNFa Measurements Mean (TNFα; Donor 2, Conc. 0 X (baseline)): 9.47E−15
Donor 2 TNFa Measurements Mean (TNFα; Donor 2, Conc. 5 X): −54.1596
Donor 2 TNFa Measurements Mean (TNFα; Donor 2, Conc. 10 X): −70.8382
Donor 2 TNFa Measurements Mean (TNFα; Donor 2, Conc. 20 X): −88.6528
Donor 2 TNFa Measurements Mean (TNFα; Donor 2, Conc. 40 X): −103.984
Donor 3 TNFa Measurements Mean (TNFα; Donor 3, Conc. 0 X (baseline)): 4.74E−15
Donor 3 TNFa Measurements Mean (TNFα; Donor 3, Conc. 5 X): −33.6246
Donor 3 TNFa Measurements Mean (TNFα; Donor 3, Conc. 10 X): −41.7266
Donor 3 TNFa Measurements Mean (TNFα; Donor 3, Conc. 20 X): −48.4373
Donor 3 TNFa Measurements Mean (TNFα; Donor 3, Conc. 40 X): −55.3093
LPS-induced TNFα secretion (TNFα; Donor 1): significantly reduced
LPS-induced TNFα secretion (TNFα; Donor 2): significantly reduced
LPS-induced TNFα secretion (TNFα; Donor 3): significantly reduced
